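Method: 48-hour compound exposure of cells in 96-well plates, five concentrations, linear interpolation of endpoints. The concentration for 50% growth inhibition is given as GI50.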 The source made the active and inactive calls. Rule as the data show it: active = GI50 up to about 1.1 µM and inactive = higher.
Experiments:
Experiment in all cases: NCI anticancer screen, dose series, 48 h
[1] = test system: HOP-92
[2] = test system: HCT-116
[3] = test system: A549
[4] = test system: 786-0
[5] = test system: OVCAR-4
[6] = test system: IGROV-1
[7] = test system: MDA-MB-231
[8] = test system: HOP-62
[9] = test system: HT-29
[10] = test system: SK-MEL-2
[11] = test system: SF-539
[12] = test system: SK-MEL-5
[13] = test system: SK-MEL-28
[14] = test system: MDA-MB-435
[15] = test system: UACC-257
[16] = test system: COLO 205
[17] = test system: SNB-75
[18] = test system: SF-295
[19] = test system: HCC 2998
[20] = test system: MOLT-4

Measured: GI50

Cc1ccc2nc(Cl)c(/C=N/N3C(=O)/C(=C/c4ccccc4S)N=C3c3ccccc3)cc2c1
inactive: [1] 73.6 µM | [2] 30.1 µM | [3] 33.4 µM | [4] 54 µM | [5] 29.6 µM | [6] 29.1 µM | [7] > 100 µM | [8] 27.7 µM | [9] 42.8 µM | [10] 20.4 µM | [11] 15.2 µM | [12] 31.6 µM | [13] > 100 µM | [14] 12.6 µM | [15] 68.5 µM | [16] 28.2 µM | [17] 22.1 µM | [18] 25.3 µM | [19] 45.3 µM | [20] 1.85 µM

OC(c1cccs1)c1cc2ccccc2s1 (stereo not given)
inactive: [1] > 10 µM | [2] > 10 µM | [3] > 10 µM | [4] > 10 µM | [5] > 10 µM | [6] > 10 µM | [7] > 10 µM | [8] > 10 µM | [9] > 10 µM | [10] > 10 µM | [11] > 10 µM | [12] > 10 µM | [13] > 10 µM | [14] > 10 µM | [15] > 10 µM | [16] > 10 µM | [17] > 10 µM | [18] > 10 µM | [19] > 10 µM | [20] > 10 µM

COCOC1/C=C/CCCCC(=O)C(C)C#CC1 (stereo not given)
inactive: [1] 3.1 µM | [2] 1.86 µM | [3] 12.9 µM | [4] 2.09 µM | [5] 10.2 µM | [6] 3.65 µM | [7] 4.73 µM | [8] 17.5 µM | [9] 3.37 µM | [10] 5.81 µM | [11] 5.7 µM | [12] 8.87 µM | [13] 12.4 µM | [14] 5.52 µM | [15] 5.65 µM | [16] 2.51 µM | [17] 12.9 µM | [18] 16.6 µM | [19] 7.89 µM | [20] 2.09 µM

O=C1C[C@@H](c2ccccc2)NCCCCN(O)CCCN1
inactive: [1] > 100 µM | [2] > 100 µM | [3] > 100 µM | [4] > 100 µM | [5] 88.5 µM | [6] > 100 µM | [7] > 100 µM | [8] > 100 µM | [9] > 100 µM | [10] > 100 µM | [11] > 100 µM | [12] > 100 µM | [13] > 100 µM | [14] > 100 µM | [15] > 100 µM | [16] > 100 µM | [17] > 100 µM | [18] > 100 µM | [19] > 100 µM | [20] > 100 µM

O=Cc1cccc2c1Oc1c(cccc1C(=O)O)S2
inactive: [1] 70.8 µM | [2] 28.2 µM | [3] 23.6 µM | [4] 76.2 µM | [5] 98.4 µM | [6] > 100 µM | [7] > 100 µM | [8] 49.9 µM | [9] > 100 µM | [10] > 100 µM | [11] 38.9 µM | [12] 67.1 µM | [13] > 100 µM | [14] > 100 µM | [15] > 100 µM | [16] 23.2 µM | [17] 78.7 µM | [18] 52.7 µM | [19] 57.4 µM | [20] 17.3 µM

— ChEMBL document CHEMBL1201862, “PubChem BioAssay data set” (2004)
